Measurements taken from PubChem BioAssay AID1963963 (Molecular Pharmacology Branch, DTP, NCI, 2024).

System: 958667-338-R-J2-PDC tumor spheroids viability
Experiment: Anticancer human tumor 958667-338-R-J2-PDC patient-derived colon adenocarcinoma cell line growth inhibition [PI3K]
Settings: spheroids with HUVEC and MSC; for IC50: curve of first compound; for viability, T/C: stronger effect = lower value
Outline: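 Combination activity was assessed by viability in multicellular tumor spheroids carrying HUVEC and MSC components. Agents were tested with PI3K inhibitors from a Cmax-based top dose (or 10 microM) downward in half-log increments.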
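Also: spheroids exposed to compounds for seven days before readout.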

Compound Cn1cnc2c(F)c(Nc3ccc(Br)cc3Cl)c(C(=O)NOCCO)cc21 + COc1c(OCCCN2CCOCC2)ccc2c3n(c(=NC(=O)c4cnc(N)nc4)nc12)CCN3 has an IC50 (second compound 0.00316 µM) of 255 nM, an IC50 (second compound 0.01 µM) of 134 nM and an IC50 (second compound 0.0316 µM) of 38 nM. For the same compound, the IC50 (second compound 0.1 µM) was 20.6 nM, the IC50 (second compound 0.316 µM) was less than 9.49 nM and the IC50 (second compound 1 µM) was less than 9.49 nM. It also gave a viability, T/C (second compound 0.00316 µM, first compound 0.00949 µM) of 81.6%, a viability, T/C (second compound 0.00316 µM, first compound 0.03 µM) of 81.9% and a viability, T/C (second compound 0.00316 µM, first compound 0.0949 µM) of 75.2%. For the same compound, the viability, T/C (second compound 0.00316 µM, first compound 0.3 µM) was 44.6%, the viability, T/C (second compound 0.00316 µM, first compound 0.949 µM) was 26.7% and the viability, T/C (second compound 0.00316 µM, first compound 3 µM) was 17.3%. It also gave a viability, T/C (second compound 0.01 µM, first compound 0.00949 µM) of 87.8%, a viability, T/C (second compound 0.01 µM, first compound 0.03 µM) of 65.3% and a viability, T/C (second compound 0.01 µM, first compound 0.0949 µM) of 62.1%. The viability, T/C (second compound 0.01 µM, first compound 0.3 µM) was 34.7%, the viability, T/C (second compound 0.01 µM, first compound 0.949 µM) was 24.9% and the viability, T/C (second compound 0.01 µM, first compound 3 µM) was 11.6%. The viability, T/C (second compound 0.0316 µM, first compound 0.00949 µM) was 71.6%, the viability, T/C (second compound 0.0316 µM, first compound 0.03 µM) was 46.2% and the viability, T/C (second compound 0.0316 µM, first compound 0.0949 µM) was 40.4%. For the same compound, the viability, T/C (second compound 0.0316 µM, first compound 0.3 µM) was 28%, the viability, T/C (second compound 0.0316 µM, first compound 0.949 µM) was 17.4% and the viability, T/C (second compound 0.0316 µM, first compound 3 µM) was 6.46%. For the same compound, the viability, T/C (second compound 0.1 µM, first compound 0.00949 µM) was 67.8%, the viability, T/C (second compound 0.1 µM, first compound 0.03 µM) was 40.9% and the viability, T/C (second compound 0.1 µM, first compound 0.0949 µM) was 23.8%. For the same compound, the viability, T/C (second compound 0.1 µM, first compound 0.3 µM) was 16.4%, the viability, T/C (second compound 0.1 µM, first compound 0.949 µM) was 8.73% and the viability, T/C (second compound 0.1 µM, first compound 3 µM) was 2.61%. It also gave a viability, T/C (second compound 0.316 µM, first compound 0.00949 µM) of 34.6%, a viability, T/C (second compound 0.316 µM, first compound 0.03 µM) of 25.5% and a viability, T/C (second compound 0.316 µM, first compound 0.0949 µM) of 13.7%. For the same compound, the viability, T/C (second compound 0.316 µM, first compound 0.3 µM) was 6.91%, the viability, T/C (second compound 0.316 µM, first compound 0.949 µM) was 3.48% and the viability, T/C (second compound 0.316 µM, first compound 3 µM) was 1.27%. For the same compound, the viability, T/C (second compound 1 µM, first compound 0.00949 µM) was 13.5%, the viability, T/C (second compound 1 µM, first compound 0.03 µM) was 10.8% and the viability, T/C (second compound 1 µM, first compound 0.0949 µM) was 5.1%. The viability, T/C (second compound 1 µM, first compound 0.3 µM) was 3.51%, the viability, T/C (second compound 1 µM, first compound 0.949 µM) was 2.89% and the viability, T/C (second compound 1 µM, first compound 3 µM) was 1%.
